27 molecules from ChEMBL document CHEMBL1921674, “Novel tricyclic inhibitors of IKK2: discovery and SAR leading to the identification of 2-methoxy-N-((6-(1-methyl-4-(methylamino)-1,6-dihydroimidazo[4,5-d]pyrrolo[2,3-b]pyridin-7-yl)pyridin-2-yl)methyl)acetamide (BMS-066)” (Bioorg Med Chem Lett, 2011) can be followed below.

For one data set, the system named is PBMC. Briefly: Antiinflammatory activity in human PBMC assessed as inhibition of LPS-induced TNFalpha release treated for 5 mins before LPS challenge measured after 4 hrs by ELISA. Type of data set: functional, cell-based. On the technique in general: An ELISA detects its analyte on a solid surface through an enzyme-linked reagent.
Another data set has as its system Blood. In words: Antiinflammatory activity in human whole blood assessed as inhibition of LPS-induced TNFalpha release treated for 45 mins before LPS challenge measured after 6 hrs by ELISA. Type of data set: functional, tissue-based.
Data set [1] addresses T1, Inhibitor of nuclear factor kappa-B kinase subunit beta (Homo sapiens, UniProt O14920).
T1 sequence (O14920 whole entry): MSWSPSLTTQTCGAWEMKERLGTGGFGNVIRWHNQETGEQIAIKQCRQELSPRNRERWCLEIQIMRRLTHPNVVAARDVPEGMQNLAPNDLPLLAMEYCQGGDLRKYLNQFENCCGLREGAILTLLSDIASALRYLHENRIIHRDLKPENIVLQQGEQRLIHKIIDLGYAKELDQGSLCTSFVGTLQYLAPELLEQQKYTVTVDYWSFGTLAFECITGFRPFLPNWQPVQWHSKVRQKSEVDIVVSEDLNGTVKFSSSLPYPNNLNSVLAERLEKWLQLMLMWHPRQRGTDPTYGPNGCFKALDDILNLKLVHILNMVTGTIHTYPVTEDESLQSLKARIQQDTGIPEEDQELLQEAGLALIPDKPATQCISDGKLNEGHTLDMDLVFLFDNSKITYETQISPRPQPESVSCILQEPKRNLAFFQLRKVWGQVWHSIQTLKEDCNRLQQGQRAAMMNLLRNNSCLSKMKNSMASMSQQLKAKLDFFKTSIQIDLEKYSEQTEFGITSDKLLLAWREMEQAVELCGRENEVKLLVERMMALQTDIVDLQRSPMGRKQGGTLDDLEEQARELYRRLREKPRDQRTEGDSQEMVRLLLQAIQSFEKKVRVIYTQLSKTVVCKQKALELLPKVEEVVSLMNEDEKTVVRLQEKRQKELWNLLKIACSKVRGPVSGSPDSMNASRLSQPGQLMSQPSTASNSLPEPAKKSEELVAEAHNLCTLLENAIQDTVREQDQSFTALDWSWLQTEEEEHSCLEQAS
In words: Inhibition of human IKK2-mediated GST-IkappaBalpha protein fusion phosphorylation.

Data set [2] in a line: Cmax in Lewis rat at 30 mg/kg, po. Type of data set: ADME, organism-based. More on the design: dose 30 mg/kg, route oral. As to conditions: in vivo.
Data set [3] can be described thus: AUC in Lewis rat at 30 mg/kg, po. Type of data set: ADME, organism-based. Also noted: dose 30 mg/kg, route oral. As to conditions: plasma.

Some results are limits rather than exact numbers.

On to `CNc1nc2[nH]c(-c3cccc(CN(C)C(=O)COC)n3)cc2c2c1ncn2C`, for which the IC50 in the data set with PBMC (Homo sapiens, PBMC) is 0.35 µM; in the data set with Blood (Homo sapiens, Blood) it was 3.3 µM; in data set [1], 0.019 µM.

Regarding `CNC(=O)N(C)Cc1cccc(-c2cc3c(nc(NC)c4ncn(C)c43)[nH]2)n1`, the IC50 in the data set on PBMC (Homo sapiens, PBMC) came to 0.35 µM; in the data set with Blood (Homo sapiens, Blood) it was 1.7 µM; in data set [1], 0.0057 µM.

Take `CNc1nc2[nH]c(-c3cccc(CNC(C)=O)n3)cc2c2c1ncn2C`: the half-maximal inhibitory concentration (IC50) in the data set with PBMC (Homo sapiens, PBMC) was 0.16 µM; in the data set on Blood (Homo sapiens, Blood), 1.6 µM; in data set [1], 0.019 µM.

In the case of `CNc1nc2[nH]c(-c3cccc(CN(C)C(C)=O)n3)cc2c2c1ncn2C`, the IC50 in the data set on PBMC (Homo sapiens, PBMC) worked out at 0.23 µM; in the data set with Blood (Homo sapiens, Blood) it was 3 µM; in data set [1] it was 0.014 µM.

As for `CNc1nc2[nH]c(-c3cccc(C(C)NC(C)=O)n3)cc2c2c1ncn2C` (single isomer, unassigned; enantiomer 2), the concentration for half-maximal inhibition (IC50) with PBMC (pbmc) was determined as 0.3 µM; in the data set with Blood, 1.6 µM; in data set [1] it was 0.009 µM.

In the case of `CNc1nc2[nH]c(-c3cccc(N(C)CCOC)n3)cc2c2c1ncn2C`, the IC50 in the data set with PBMC (Homo sapiens, PBMC) was 1.9 µM; with Blood (Homo sapiens, Blood) it was > 25 µM; in data set [1] it was 0.438 µM.

Take `CCC(=O)NCc1cccc(-c2cc3c(nc(NC)c4ncn(C)c43)[nH]2)n1`: the concentration for half-maximal inhibition (IC50) in the data set on PBMC (Homo sapiens, PBMC) is 0.7 µM; with Blood (Homo sapiens, Blood) it was 6.1 µM; in data set [1], 0.044 µM.

Turning to `CNc1nc2[nH]c(-c3cccc(CNC(=O)CO)n3)cc2c2c1ncn2C`, the IC50 in the data set with PBMC (Homo sapiens, PBMC) amounted to 0.53 µM; in the data set with Blood (Homo sapiens, Blood), 1.8 µM; in data set [1], 0.013 µM.

`CNc1nc2[nH]c(-c3cccc(CNC(=O)c4cnccn4)n3)cc2c2c1ncn2C`: the half-maximal inhibitory concentration (IC50) stood at 0.29 µM in the data set with PBMC (Homo sapiens, PBMC); 5.9 µM with Blood (Homo sapiens, Blood); 0.023 µM in data set [1].

In the case of `CCNc1nc2sc(-c3cccc([C@H](C)NC(C)=O)c3)nc2c2c1ncn2C`, the concentration for half-maximal inhibition (IC50) in the data set on Blood (Homo sapiens, Blood) amounted to 3.5 µM.

For `CNc1nc2[nH]c(-c3cccc(CNC(=O)CC(C)C)n3)cc2c2c1ncn2C`, the IC50 in the data set on PBMC (Homo sapiens, PBMC) came to 0.39 µM; with Blood (Homo sapiens, Blood), 15 µM; in data set [1], 0.026 µM.

For `CNc1nc2[nH]c(-c3cccc(CNC(=O)CCOC)n3)cc2c2c1ncn2C`, the IC50 is 0.28 µM in the data set on PBMC (Homo sapiens, PBMC); 3.3 µM with Blood (Homo sapiens, Blood); 0.012 µM in data set [1].

As to `CNc1nc2[nH]c(-c3cccc(NCCOC)n3)cc2c2c1ncn2C`, the concentration for half-maximal inhibition (IC50) was 0.35 µM in the data set with PBMC (Homo sapiens, PBMC); 6.4 µM with Blood (Homo sapiens, Blood); 0.02 µM in data set [1].

As for `CNc1nc2[nH]c(-c3cccc(CNC(=O)C4(C)CC4)n3)cc2c2c1ncn2C`, the IC50 with PBMC (Homo sapiens, PBMC) was determined as 0.57 µM; in data set [1], 0.041 µM.

In data set [1], `CNc1nc2[nH]c(-c3cc(CNC(C)=O)ccn3)cc2c2c1ncn2C` gave an IC50 of 0.33 µM.

On to `CNCC(=O)NCc1cccc(-c2cc3c(nc(NC)c4ncn(C)c43)[nH]2)n1`, for which the IC50 came out at 0.13 µM with PBMC (Homo sapiens, PBMC); 17 µM with Blood (Homo sapiens, Blood); 0.086 µM in data set [1].

As to `CNc1nc2[nH]c(-c3cccc(NC(C)=O)n3)cc2c2c1ncn2C`, the half-inhibitory concentration (IC50) turned out to be 1.9 µM in the data set with PBMC (Homo sapiens, PBMC) and 0.13 µM in data set [1].

For the molecule `CNc1nc2[nH]c(-c3cccc(CNC(=O)C(C)(C)C)n3)cc2c2c1ncn2C`, the IC50 is 0.31 µM in the data set with PBMC (Homo sapiens, PBMC); 5.5 µM in the data set with Blood (Homo sapiens, Blood); 0.066 µM in data set [1].

Turning to `CNc1nc2[nH]c(-c3cccc(CNC(=O)C(C)(C)O)n3)cc2c2c1ncn2C`, the half-inhibitory concentration (IC50) is 0.24 µM in the data set on PBMC (Homo sapiens, PBMC); 3.4 µM with Blood (Homo sapiens, Blood); 0.012 µM in data set [1].

In data set [2], `CNc1nc2[nH]c(-c3cccc(CNC(=O)CCOC)c3)cc2c2c1ncn2C` had a Cmax of 7.8 µM. Further, the AUC in data set [3] came to 39 µM·h. Further, the IC50 in the data set with Blood (Homo sapiens, Blood) amounted to 7 µM; in data set [1] it was 0.013 µM.

In data set [1], `CNc1nc2[nH]c(-c3cccc(CNC(C)=O)c3)cc2c2c1ncn2C` displayed an IC50 of 0.014 µM.

As for `CNc1nc2[nH]c(-c3cccc(C4(NC(C)=O)CC4)n3)cc2c2c1ncn2C`, the concentration for half-maximal inhibition (IC50) is 0.4 µM in the data set on PBMC (Homo sapiens, PBMC); 7 µM with Blood (Homo sapiens, Blood); 0.081 µM in data set [1].

For `CNc1nc2[nH]c(-c3cccc(N4CCN(C)CC4)n3)cc2c2c1ncn2C`, the IC50 was 1.5 µM in the data set on PBMC (Homo sapiens, PBMC); > 25 µM with Blood (Homo sapiens, Blood); 0.128 µM in data set [1].

Consider `CNc1nc2[nH]c(-c3cccc(CNC(=O)C4CC4)n3)cc2c2c1ncn2C`, for which the 50% inhibitory concentration (IC50) with PBMC (Homo sapiens, PBMC) was found to be 0.28 µM; with Blood (Homo sapiens, Blood) it was 5.9 µM; in data set [1], 0.033 µM.

Turning to `CNc1nc2[nH]c(-c3cccc(CNC(=O)c4csnn4)n3)cc2c2c1ncn2C`, the IC50 in the data set with PBMC (Homo sapiens, PBMC) was determined as 0.23 µM; in the data set with Blood (Homo sapiens, Blood), 5.2 µM; in data set [1] it was 0.028 µM.

As to `CNc1nc2[nH]c(-c3cccc(CNC(=O)CCN(C)C)n3)cc2c2c1ncn2C`, the half-maximal inhibitory concentration (IC50) amounted to 0.22 µM with PBMC (Homo sapiens, PBMC); 1.8 µM in the data set with Blood (Homo sapiens, Blood); 0.005 µM in data set [1].

In the case of `CNc1nc2[nH]c(-c3cccc(C(C)NC(C)=O)n3)cc2c2c1ncn2C` (single isomer, unassigned), the IC50 with PBMC (pbmc) worked out at 0.68 µM; with Blood (Homo sapiens, Blood), 1.7 µM; in data set [1], 0.016 µM.

A word on the IC50: it is the concentration needed to halve the response being measured. For orientation: Cmax means the peak of the concentration-time curve. For orientation: AUC means concentration integrated over time. Read a low AUC as low exposure.
